This note sets out measurements from US9084818B2, “Topical dermal delivery compositions using self assembling nanoparticles with cetylated components” (CYMBIOTICS, INC., priority 2013, dated 2015).

A short description of series [1]: Minimum HLB needed for cetosome formation. The format is physicochemical. The conditions noted are these: surfactant HLB requirement to solubilize and stabilize within the cetosome. As to the method: Core components are also chosen with melting points between 40° to 75° C. This allows for thermal dissociation into the oil phase and strong affinity re-association as the temperature is reduced.

Series [2] can be described thus: Pre-clinical pharmacokinetic feasibility study of oxybutynin cream on shaved rabbit backs. Type of series: in vivo, rabbits. As to the method:
Two levels of oxybutynin hydrochloride for use in the study were incorporated into the composition matrix: 5 mg/gm and 0.5 mg/ml. Three rabbits were chosen for each dosing. Animal backs were shaved were shaved 24 hrs prior to application. One gram was applied to the shaved area and rubbed in. This was covered by non-absorbent dressing. One milliliter of blood was collected from a marginal ear vein at baseline, 15 minutes, 1 hr, 6 hrs, 12 hrs and 24 hrs following dosing. Heparin was used as anticoagulant. Extracted samples were analyzed using an LC/MS-MS spectrometer (API 3000) with diazepam as an internal standard. Mobile phase was a 50:40:10 mixture (methanol:acetonitrile: 10 mM ammonium formate). The column used was a Phenomenex, Luna C18, 150×4.6 mm, 5 micron. Temperature for analysis was 30° C. with a flow rate of 1.0 ml/min with splitter with detection using ESI positive ion. Both oxybutynin and N-desethyl-oxybutynin were analyzed. N-desethyl-oxybutynin (DES) is a metabolite of oxybutynin considered to be associated with adverse secondary side effects.

[3] abbreviates: Cream, 0.5 mg/ml, one gram topical, rabbit plasma, mean.
Setting [4] is: rabbit, in vivo, topical or ocular, 5 mg.

In general, melting point refers to the temperature of the solid-liquid transition. Broadly, the Cmax is the peak of the concentration-time curve. The Tmax is the time from dosing to the highest level. The term AUC(0-t) denotes the area under the concentration-time curve up to a stated or last time point. Read a low AUC(0-t) as low exposure.

As to `CCCCCC/C=C\CCCCCCCC(=O)OCCCCCCCCCCCCCCCC` [Cetyl Palmitoleate], the melting point fell in the range of 45 to 52 °C. Besides, the “MINIMUM HLB NEEDED FOR CETOSOME FORMATION” value in series [1] is reported as 10.

Consider oxybutynin, for which, in series [2] (setting [3]), the “AUC 0-24 hr” value amounted to 2.512 ng·h/mL, the Cmax was 0.836 ng/mL and the Tmax was 12 h.

As to Cetyl Isomyristate, the “MINIMUM HLB NEEDED FOR CETOSOME FORMATION” value in series [1] was 10.

With `CCN(CC)CC#CCOC(=O)C(O)(c1ccccc1)C1CCCCC1` (stereo not shown) [Oxybutynin, oxybutynin], in series [2] (setting [4]), the AUC(0-t) was 22 ng·h/mL, the concentration peaked (Cmax) at 9.33 ng/mL and the Tmax was determined as 6 h.

As for `CCCCCCCCCCCCCCCCO` [Cetyl Alcohol], in series [1], the “MINIMUM HLB NEEDED FOR CETOSOME FORMATION” value is on record as 15.5.

Turning to `CCCCCCCCCCCCCCCCOC(=O)CCCCCCCCCCCCCCC` [Cetyl Palmitate], the “MINIMUM HLB NEEDED FOR CETOSOME FORMATION” value in series [1] was 10.

Molecule `CCCCCCCCCCCCCCCCOC(=O)CCCCCCCCCCC` [Cetyl Laurate] registered a melting point of 43 to 45 °C. In series [1], the “MINIMUM HLB NEEDED FOR CETOSOME FORMATION” value is on record as 10.

On to `CCCCCCCCCCCCCCCCOC(=O)CCCCCCCCCCCCC` [Cetyl Myristate], for which the melting point lay in the range of 45 to 48 °C. Further, in series [1], the “MINIMUM HLB NEEDED FOR CETOSOME FORMATION” value turned out to be 10.

As to `CCCCCCCCCCCCCCCCOC(=O)CCCCCCCCC` [Cetyl Decanoate], the melting point lay in the range of 40 to 44 °C. Also, the “MINIMUM HLB NEEDED FOR CETOSOME FORMATION” value in series [1] was found to be 10.

`CCCCCCCC/C=C\CCCCCCCC(=O)OCCCCCCCCCCCCCCCC` [Cetyl Oleate] registered a melting point of 58 to 60 °C. For the same molecule, the “MINIMUM HLB NEEDED FOR CETOSOME FORMATION” value in series [1] is given as 10.

`CCCCCCCCCCCCCCCCOC(=O)CCCCCCC` [Cetyl Octanoate] came in with a melting point of 52 to 60 °C. Besides, the “MINIMUM HLB NEEDED FOR CETOSOME FORMATION” value in series [1] amounted to 10.

With `CCNCC#CCOC(=O)C(O)(c1ccccc1)C1CCCCC1` (stereo not shown) [DES, N-desethyl-oxybutynin], the “detection of the metabolite in plasma during the 24 hour period” value in series [2] (either level of dose application) is given as “not detectable”. In series [2] (rabbit, in vivo, topical or ocular), the Tmax is below 0.5 h.

The molecule `CCCCCCCCCCCCCCCCCC(=O)OCCCCCCCCCCCCCCCC` [Cetyl Stearate] had a melting point of 62 to 70 °C. Further, the “MINIMUM HLB NEEDED FOR CETOSOME FORMATION” value in series [1] worked out at 10.
